Reference: US4916220A, “Palmitoyl-fructose-1,6-diphosphate, its therapeutic use and relevant preparation methods” (Biomedica Foscama Industria Chimico-Farmaceutica, priority 1988, dated 1990)
Like-named read-outs stand apart in the source and are kept apart here.

Legend:
[1] = tested on: small slices of rat heart; assay: Attack of ^14C-FDP and ^14C-DPF to small slices of rat heart; assay type: cell-based; conditions: for Attack to small slices of rat heart: 5 mM, 40 min incubation at 25° C., 3 tests average
Description: Small slices of rat heart were used to study comparatively the attack of ^14 C-FDP and ^14 C-DPF, the latter obtained by palmitoylation of a mixture of "hot" and "cold" FDP.

[2] = tested on: entrance of ^45Ca in small slices of heart; assay: Effect on the entrance of ^45Ca in small slices of heart; assay type: cell-based; conditions: 3 min. at 25° C., 0.5 mM Ca; for effect on the entrance of ^45Ca: result in words
Protocol: The effect on the entrance of ^45 Ca in small slices of heart incubated for 3 min. at 25° C. with 0.5 mM Ca is inhibitory both with FDP and with DPF and therefore both seem to protect the tissue from the anoxy occurring with the entrance of Ca.

perfused rat heart = assay: Action on perfused rat heart (inotropic and chronotropic); assay type: cell-based; conditions: for EC50: biphasic inotropic and chronotropic effect, read-out: ED50 (perfused rat heart); for action on perfused heart (inotropic and chronotropic): result in words, final concentration
[3] = tested on: organs (heart, kidneys, liver); assay: Radioactivity accumulated in organs after administration per os to rats; assay type: in vivo, rat; conditions: 3,000,000 dpm total, 1 hour after administration
Protocol: The administration to rats of ^14 C-FDP and ^14 C-DPF per os (3,000,000 dpm total) allowed measurement of the radioactivity accumulated 1 hour after administration at the level of the organs and the results are reported in Table 2.

| Molecule | Attack to small slices of rat heart [1] | effect on the entrance of ^45Ca [2] | IC50 ([2]; 0.05 h) | EC50 (perfused rat heart; Rattus norvegicus) | action on perfused heart (inotropic and chronotropic) (perfused rat heart) | Accumulation of radioactivity, Heart [3] | Accumulation of radioactivity, Kidneys [3] | Accumulation of radioactivity, Liver [3] | membrane affinity higher than that of FDP ([1]; relative to FDP) | IC50 [2] | EC50 (perfused rat heart) |
| --- | --- | --- | --- | --- | --- | --- | --- | --- | --- | --- | --- |
| O=C(COP(=O)(O)O)[C@@H](O)[C@H](O)[C@H](O)COP(=O)(O)O [FDP, fructose-1,6-diphosphate] | 260 ± 20 nmoles/100 mg | inhibitory | 8000 µM | 100 µM | biphasic, i.e. inotropic and chronotropic, positive at concentrations lower than 1 mM (final) and negative for higher concentrations | 508 | 395 | 624 | – | – | – |
| palmitoyl-fructose-1,6-diphosphate [DPF] | 344 ± 16 nmoles/100 mg | inhibitory | – | – | biphasic effect but its effect appears at lower doses | 1620 | 1324 | 1434 | 30% | 5500 µM | 40 µM |
